# Test results: ChEMBL document CHEMBL1201862, “PubChem BioAssay data set” (2004)
#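 The compound was tested at five concentrations on cells cultured in 96-well plates, with a 48-hour exposure period. Here, GI50 denotes the concentration required for 50% inhibition of growth.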 Calls of active or inactive are those of the source. No stated cut-off is given here; in the data, active = GI50 up to about 1.1 µM and inactive = higher.
# Assays:
# Experiment in all cases: NCI tumour cell line growth inhibition, 48 h
# A498 = system: A498
# A549 = system: A549
# COLO 205 = system: COLO 205
# HCC 2998 = system: HCC 2998
# HCT-116 = system: HCT-116
# HCT-15 = system: HCT-15
# KM12 = system: KM12
# MDA-MB-231 = system: MDA-MB-231
# Malme-3M = system: Malme-3M
# NCI-H23 = system: NCI-H23
# NCI-H522 = system: NCI-H522
# OVCAR-5 = system: OVCAR-5
# PC-3 = system: PC-3
# SF-539 = system: SF-539
# SK-MEL-5 = system: SK-MEL-5
# SK-OV-3 = system: SK-OV-3
# SN12C = system: SN12C
# SNB-75 = system: SNB-75
# T47D = system: T47D
# M19-MEL = system: M19-MEL
SMILES,GI50 (A498),GI50 (A549),GI50 (COLO 205),GI50 (HCC 2998),GI50 (HCT-116),GI50 (HCT-15) [µM],GI50 (KM12),GI50 (MDA-MB-231),GI50 (Malme-3M),GI50 (NCI-H23),GI50 (NCI-H522),GI50 (OVCAR-5),GI50 (PC-3),GI50 (SF-539),GI50 (SK-MEL-5),GI50 (SK-OV-3),GI50 (SN12C),GI50 (SNB-75),GI50 (T47D),GI50 (M19-MEL)
COc1cccc(C2c3cc4c(cc3OC(NNC(N)=O)C2C)OCO4)c1O (stereo not given),0.83 µM (active),1.92 µM (inactive),1.78 µM (inactive),1.8 µM (inactive),0.834 µM (active),1.08,0.731 µM (active),3.94 µM (inactive),0.745 µM (active),3.17 µM (inactive),0.871 µM (active),6.12 µM (inactive),1.15 µM (inactive),0.766 µM (active),0.345 µM (active),5.94 µM (inactive),2.65 µM (inactive),4.33 µM (inactive),61 µM (inactive),–
CN(C)CCn1c(=O)c2ccc(NCCCN(C)CCCNc3ccc4c(=O)n(CCN(C)C)c(=O)n5c6ccccc6c(=O)c3c45)c3c(=O)c4ccccc4n(c1=O)c23,0.0571 µM (active),< 0.01 µM (active),< 0.01 µM (active),< 0.0115 µM (active),< 0.01 µM (active),< 0.01,< 0.01 µM (active),< 0.0405 µM (active),0.361 µM (active),< 0.01 µM (active),< 0.01 µM (active),0.145 µM (active),< 0.01 µM (active),< 0.01 µM (active),< 0.0106 µM (active),0.101 µM (active),< 0.01 µM (active),< 0.0117 µM (active),0.54 µM (active),–
CCOC(=O)Cc1csc(NC(NC(=O)OCC)(C(=O)OCC)C(F)(F)F)n1 (stereo not given),> 100 µM (inactive),> 100 µM (inactive),> 100 µM (inactive),> 100 µM (inactive),> 100 µM (inactive),> 100,> 100 µM (inactive),> 100 µM (inactive),> 100 µM (inactive),> 100 µM (inactive),16.9 µM (inactive),> 100 µM (inactive),> 100 µM (inactive),> 100 µM (inactive),> 100 µM (inactive),> 100 µM (inactive),> 100 µM (inactive),> 100 µM (inactive),> 100 µM (inactive),–
COc1ccc(O)c(/C=N/NC(=S)N2CCCCC2)c1,12.1 µM (inactive),1.81 µM (inactive),2.98 µM (inactive),1.87 µM (inactive),2.3 µM (inactive),0.611,4.38 µM (inactive),9.23 µM (inactive),1.71 µM (inactive),2.15 µM (inactive),0.948 µM (active),5.9 µM (inactive),5 µM (inactive),3.77 µM (inactive),2.02 µM (inactive),2.16 µM (inactive),4.92 µM (inactive),10.5 µM (inactive),6.71 µM (inactive),–
C=C(C)c1cc(C(C)(C)C)cc(C(=C)C)c1S(C)(=O)=O,> 100 µM (inactive),> 100 µM (inactive),0.596 µM (active),> 100 µM (inactive),> 100 µM (inactive),> 100,> 100 µM (inactive),3.91 µM (inactive),> 100 µM (inactive),> 100 µM (inactive),> 100 µM (inactive),> 100 µM (inactive),> 100 µM (inactive),> 100 µM (inactive),> 100 µM (inactive),> 100 µM (inactive),> 100 µM (inactive),> 100 µM (inactive),10.7 µM (inactive),–
CC12NC(=C(C#N)C#N)C(C#N)=C3NC(N)=C(C#N)C(=C31)Oc1ccccc12 (stereo not given),> 30.9 µM (inactive),17 µM (inactive),4.71 µM (inactive),27.4 µM (inactive),4.53 µM (inactive),28.8,3.77 µM (inactive),> 30.1 µM (inactive),20.6 µM (inactive),6.85 µM (inactive),56.2 µM (inactive),47.8 µM (inactive),30.1 µM (inactive),4.32 µM (inactive),5.05 µM (inactive),75 µM (inactive),> 30.7 µM (inactive),> 57.1 µM (inactive),> 79.1 µM (inactive),–
CCCCCCOc1ccc(C(=O)N(C)O)cc1,26.5 µM (inactive),12.1 µM (inactive),14.2 µM (inactive),17.7 µM (inactive),14.9 µM (inactive),4.41,24 µM (inactive),41.9 µM (inactive),14.1 µM (inactive),11.9 µM (inactive),9.86 µM (inactive),67.3 µM (inactive),12.1 µM (inactive),15 µM (inactive),17.6 µM (inactive),18.8 µM (inactive),11.9 µM (inactive),27.3 µM (inactive),23.6 µM (inactive),–
CC(C)(C)c1cc(C(=O)/C=C/C=C/c2ccccc2)cc(C(C)(C)C)c1O,20.6 µM (inactive),17.8 µM (inactive),16.6 µM (inactive),14 µM (inactive),18.2 µM (inactive),15.9,> 28.2 µM (inactive),19.4 µM (inactive),47.9 µM (inactive),27.2 µM (inactive),10.3 µM (inactive),36.7 µM (inactive),14.7 µM (inactive),14.5 µM (inactive),11.3 µM (inactive),31.8 µM (inactive),27.4 µM (inactive),14.7 µM (inactive),28.9 µM (inactive),–
CCOP(=O)(OCC)C(Cc1cn(S(=O)(=O)c2ccc(C)cc2)cn1)C(=O)O (stereo not given),> 100 µM (inactive),> 100 µM (inactive),> 100 µM (inactive),> 100 µM (inactive),> 100 µM (inactive),> 100,> 100 µM (inactive),> 100 µM (inactive),> 100 µM (inactive),> 100 µM (inactive),> 100 µM (inactive),> 100 µM (inactive),> 100 µM (inactive),> 100 µM (inactive),> 100 µM (inactive),> 100 µM (inactive),> 100 µM (inactive),> 100 µM (inactive),> 100 µM (inactive),–
C/C(=N\NC(=S)N1CC2CCC(CC2)C1)c1cccc(C)n1,3.11 µM (inactive),0.9 µM (active),0.01 µM (active),2.16 µM (inactive),< 0.0445 µM (active),0.537,0.422 µM (active),0.224 µM (active),2.11 µM (inactive),2.49 µM (inactive),0.00432 µM (active),1.46 µM (inactive),0.01 µM (active),0.378 µM (active),1.96 µM (inactive),0.809 µM (active),0.566 µM (active),2.64 µM (inactive),0.01 µM (active),–
CC(=O)NNc1nc(C)c(C(/C=C/c2ccc3c(c2)OCO3)=N/Nc2ccccc2)s1,> 100 µM (inactive),> 100 µM (inactive),> 100 µM (inactive),> 100 µM (inactive),> 100 µM (inactive),> 100,> 100 µM (inactive),> 100 µM (inactive),> 100 µM (inactive),> 100 µM (inactive),> 100 µM (inactive),> 100 µM (inactive),> 100 µM (inactive),> 100 µM (inactive),> 100 µM (inactive),> 100 µM (inactive),> 100 µM (inactive),> 100 µM (inactive),> 100 µM (inactive),–
C=C1C(=O)OC2C1C(OC(=O)/C(C)=C/C)CC(O)(CCl)C1C(OC(C)=O)C=C(C)C21O (stereo not given),21.8 µM (inactive),28.2 µM (inactive),8.3 µM (inactive),16.3 µM (inactive),7.5 µM (inactive),6.46,19.2 µM (inactive),20.1 µM (inactive),3.34 µM (inactive),16.6 µM (inactive),1.99 µM (inactive),17.3 µM (inactive),16.1 µM (inactive),18.2 µM (inactive),14.1 µM (inactive),37 µM (inactive),16.2 µM (inactive),21.8 µM (inactive),18 µM (inactive),–
C=C1c2nc3ccccc3n2C=C(c2ccc(OC)cc2)N1c1ccc(OCCN2CCOCC2)cc1,66.8 µM (inactive),28.4 µM (inactive),10.8 µM (inactive),86.3 µM (inactive),21.9 µM (inactive),6.15,15.8 µM (inactive),> 86.1 µM (inactive),6.52 µM (inactive),> 25.2 µM (inactive),1.43 µM (inactive),> 100 µM (inactive),9.51 µM (inactive),> 100 µM (inactive),8.45 µM (inactive),> 100 µM (inactive),> 61.8 µM (inactive),> 100 µM (inactive),> 100 µM (inactive),–
C=CCOc1ccc(N)c([N+](=O)[O-])c1,33.3 µM (inactive),> 100 µM (inactive),> 100 µM (inactive),> 100 µM (inactive),> 100 µM (inactive),> 100,> 100 µM (inactive),> 10 µM (inactive),> 100 µM (inactive),> 100 µM (inactive),63.4 µM (inactive),> 100 µM (inactive),> 100 µM (inactive),> 100 µM (inactive),> 100 µM (inactive),> 100 µM (inactive),> 100 µM (inactive),89.3 µM (inactive),> 100 µM (inactive),–
COc1ccc(CC2NCCc3c2[nH]c2ccccc32)cc1 (stereo not given),> 100 µM (inactive),> 100 µM (inactive),17.4 µM (inactive),23.7 µM (inactive),40 µM (inactive),52.4,58.1 µM (inactive),–,–,–,–,> 100 µM (inactive),–,42.1 µM (inactive),40.9 µM (inactive),> 100 µM (inactive),40.9 µM (inactive),39.1 µM (inactive),–,71.4 µM (inactive)
